How the values were obtained:
[1] = Human microsomal stability assay; assay type: in vitro ADME; conditions: human liver microsomes 0.5 mg/mL, 1 μM test compound, 37° C., pH 7.4
Method: Human liver microsomes (Cat. NO.: 452117, Corning, USA) were preincubated with test compound for 10 minutes at 37° C. in 100 mM potassium phosphate buffer, pH 7.4. The reactions were initiated by adding NADPH regenerating system. The final incubation mixtures contained 1 μM test compound, 0.5 mg/mL liver microsomal protein, 1 mM MgCl2, 1 mM NADP, 1 unit/mL isocitric dehydrogenase and 6 mM isocitric acid in 100 mM potassium phosphate buffer, pH 7.4. After incubation times of 0, 3, 6, 9, 15 and 30 minutes at 37° C., 300 μL of cold ACN (including internal standard) was added to 100 μL incubation mixture to terminate the reaction. Following precipitation and centrifugation, 100 μL supernatant will be taken out and added 300 μL water. The amount of compound remaining in the samples was determined by LC-MS/MS. Controls of no NADPH regenerating system at zero and 30 minutes were also prepared and analyzed. The results were categorized as: low (<7.0 mL/min/kg), medium (7.0-16.2 mL/min/kg) and high (16.2-23.2 mL/min/kg).

[2] = biological target: CD73 (Homo sapiens (Human), UniProt P21589); experiment: CD73 cellular assay (MDA-MB-231 cells, malachite readout); assay type: cell-based; conditions: AMP substrate, 45 min, read-out: Cellular IC50 against CD73
Sequence of CD73 (P21589 27-574): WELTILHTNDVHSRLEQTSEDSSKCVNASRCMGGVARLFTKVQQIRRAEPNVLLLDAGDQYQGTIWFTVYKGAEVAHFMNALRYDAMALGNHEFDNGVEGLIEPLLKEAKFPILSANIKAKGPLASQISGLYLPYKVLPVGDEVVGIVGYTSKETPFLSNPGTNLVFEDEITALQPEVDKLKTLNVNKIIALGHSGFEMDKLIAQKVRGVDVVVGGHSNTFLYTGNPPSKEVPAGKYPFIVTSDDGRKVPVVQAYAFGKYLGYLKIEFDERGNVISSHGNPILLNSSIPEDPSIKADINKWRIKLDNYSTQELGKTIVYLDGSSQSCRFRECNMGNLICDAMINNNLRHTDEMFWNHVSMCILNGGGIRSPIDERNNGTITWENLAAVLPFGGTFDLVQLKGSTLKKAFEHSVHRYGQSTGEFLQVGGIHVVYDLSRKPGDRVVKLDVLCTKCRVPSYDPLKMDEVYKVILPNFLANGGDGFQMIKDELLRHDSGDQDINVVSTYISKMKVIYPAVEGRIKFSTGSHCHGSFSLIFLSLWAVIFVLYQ
Method: After incubating with compounds for 30 minutes, 40 μL of AMP working solution (200 μM AMP in assay buffer) was added into each well in the assay plate. The assay plate was then incubated in a 5% CO2 incubator (Thermo Fisher Scientific) at 37° C. for 45 min. After the reaction was completed, 50 μL of the supernatants was collected and transferred into a new 384 well plate. 10 μL of Malachite A was added to each well in the assay plate and incubated for 10 minutes. 10 μL of Malachite B was then added to each corresponding well of the plate and incubated for 30 minutes.

SMILES | CL (h) [1] [mL/min/kg] | IC50 [2] [nM]
Cc1nc([C@H](C)Oc2nn(C)c3nnc(-c4c[nH]c(=O)[nH]c4=O)cc23)ccc1F [Example 40, 5-[3-[(1S)-1-(5-fluoro-6-methyl-2-pyridyl)ethoxy]-1-methyl-pyrazolo[3,4-c]pyridazin-5-yl]-1H-pyrimidine-2,4-dione] | 6.15 | 
CC(Oc1nn(C)c2nnc(-c3c[nH]c(=O)[nH]c3=O)cc12)c1ccc(F)cc1 (centres unmarked) [Example 16, 5-[3-[1-(4-fluorophenyl)ethoxy]-1-methyl-pyrazolo[3,4-c]pyridazin-5-yl]-1H-pyrimidine-2,4-dione] | 6.15 | 3.5
CC(Oc1nn(C)c2nnc(-c3c[nH]c(=O)[nH]c3=O)cc12)c1ccc(C#N)cc1 (centres unmarked) [Example 12, 4-[1-[5-(2,4-dioxo-1H-pyrimidin-5-yl)-1-methyl-pyrazolo[3,4-c]pyridazin-3-yl]oxyethyl]benzonitrile] | 6.15 | 3.4
CC(Oc1nn(C)c2nnc(-c3c[nH]c(=O)[nH]c3=O)cc12)c1nn(C)cc1Cl (centres unmarked) [Example 23, 5-[3-[1-(4-chloro-1-methyl-pyrazol-3-yl)ethoxy]-1-methyl-pyrazolo[3,4-c]pyridazin-5-yl]-1H-pyrimidine-2,4-dione] |  | 58.6
CC(Oc1nn(C)c2nnc(-c3c[nH]c(=O)[nH]c3=O)cc12)c1cccc(C#N)c1 (centres unmarked) [Example 11, 3-[1-[5-(2,4-dioxo-1H-pyrimidin-5-yl)-1-methyl-pyrazolo[3,4-c]pyridazin-3-yl]oxyethyl]benzonitrile] | 6.15 | 2.9
CC(C1CCCC1)N(C)c1nn(C)c2nnc(-c3c[nH]c(=O)[nH]c3=O)cc12 (centres unmarked) [Example 35, 5-[3-[1-cyclopentylethyl(methyl)amino]-1-methyl-pyrazolo[3,4-c]pyridazin-5-yl]-1H-pyrimidine-2,4-dione] |  | 2.1
CC(N(C)c1nn(C)c2nnc(-c3c[nH]c(=O)[nH]c3=O)cc12)C(C)(C)C (centres unmarked) [Example 34, 5-[1-methyl-3-[methyl(1,2,2-trimethylpropyl)amino]pyrazolo[3,4-c]pyridazin-5-yl]-1H-pyrimidine-2,4-dione] |  | 5.5
C[C@H](Oc1nn(C)c2nnc(-c3c[nH]c(=O)[nH]c3=O)cc12)c1ccc(F)cn1 [Example 43, 5-[3-[(1S)-1-(5-fluoro-2-pyridyl)ethoxy]-1-methyl-pyrazolo[3,4-c]pyridazin-5-yl]-1H-pyrimidine-2,4-dione] | 6.15 | 3.7
CC(Oc1nn(C)c2nnc(-c3c[nH]c(=O)[nH]c3=O)cc12)c1ccc(Cl)cc1 (centres unmarked) [Example 15, 5-[3-[1-(4-chlorophenyl)ethoxy]-1-methyl-pyrazolo[3,4-c]pyridazin-5-yl]-1H-pyrimidine-2,4-dione] | 6.15 | 4.1
Cc1cccc([C@H](C)Oc2nn(C)c3nnc(-c4c[nH]c(=O)[nH]c4=O)cc23)n1 [Example 41, 5-[1-methyl-3-[(1S)-1-(6-methyl-2-pyridyl)ethoxy]pyrazolo[3,4-c]pyridazin-5-yl]-1H-pyrimidine-2,4-dione] | 8.11 | 
Cc1ccnc([C@H](C)Oc2nn(C)c3nnc(-c4c[nH]c(=O)[nH]c4=O)cc23)c1 [Example 42, 5-[1-methyl-3-[(1S)-1-(4-methyl-2-pyridyl)ethoxy]pyrazolo[3,4-c]pyridazin-5-yl]-1H-pyrimidine-2,4-dione] | 7.78 | 4.1
Cn1ncc2nnc(-c3c[nH]c(=O)[nH]c3=O)cc21 [Example 3, 5-(1-methylpyrazolo[4,3-c]pyridazin-6-yl)-1H-pyrimidine-2,4-dione] |  | 104

The next lines start with the values.

CL (h) [1] [mL/min/kg] | IC50 [2] [nM] | SMILES
6.22 | 4.3 | CC(Oc1nn(C)c2nnc(-c3c[nH]c(=O)[nH]c3=O)cc12)c1cccnc1 (centres unmarked) [Example 18, 5-[1-methyl-3-[1-(3-pyridyl)ethoxy]pyrazolo[3,4-c]pyridazin-5-yl]-1H-pyrimidine-2,4-dione]
6.15 |  | CC(c1ccccc1)c1nn(C)c2nnc(-c3c[nH]c(=O)[nH]c3=O)cc12 (centres unmarked) [Example 5, 5-[1-methyl-3-(1-phenylethyl)pyrazolo[3,4-c]pyridazin-5-yl]-1H-pyrimidine-2,4-dione]
6.15 |  | Cn1nc(O[C@H](c2ccc(F)cn2)C(F)F)c2cc(-c3c[nH]c(=O)[nH]c3=O)nnc21 [Example 32A, 5-[3-[(1R)-2,2-difluoro-1-(5-fluoro-2-pyridyl)ethoxy]-1-methyl-pyrazolo[3,4-c]pyridazin-5-yl]-1H-pyrimidine-2,4-dione]
6.15 | 3.7 | CC(Oc1nn(C)c2nnc(-c3c[nH]c(=O)[nH]c3=O)cc12)c1ccccn1 (centres unmarked) [Example 17, 5-[1-methyl-3-[1-(2-pyridyl)ethoxy]pyrazolo[3,4-c]pyridazin-5-yl]-1H-pyrimidine-2,4-dione]
6.15 | 4 | C[C@H](Nc1nn(C)c2nnc(-c3c[nH]c(=O)[nH]c3=O)cc12)c1ccccc1 [Example 37, 5-[1-methyl-3-[[(1S)-1-phenylethyl]amino]pyrazolo[3,4-c]pyridazin-5-yl]-1H-pyrimidine-2,4-dione]
7.84 | 5.5 | CC(Oc1nn(C)c2nnc(-c3c[nH]c(=O)[nH]c3=O)cc12)c1ccccc1Cl (centres unmarked) [Example 13, 5-[3-[1-(2-chlorophenyl)ethoxy]-1-methyl-pyrazolo[3,4-c]pyridazin-5-yl]-1H-pyrimidine-2,4-dione]
6.15 |  | Cc1cccc([C@@H](Oc2nn(C)c3nnc(-c4c[nH]c(=O)[nH]c4=O)cc23)C(F)F)n1 [Example 33A, 5-[3-[(1R)-2,2-difluoro-1-(6-methyl-2-pyridyl)ethoxy]-1-methyl-pyrazolo[3,4-c]pyridazin-5-yl]-1H-pyrimidine-2,4-dione]
7.01 | 4 | CC(Oc1nn(C)c2nnc(-c3c[nH]c(=O)[nH]c3=O)cc12)c1cccc(Cl)c1 (centres unmarked) [Example 14, 5-[3-[1-(3-chlorophenyl)ethoxy]-1-methyl-pyrazolo[3,4-c]pyridazin-5-yl]-1H-pyrimidine-2,4-dione]
6.36 | 6.9 | CC(Oc1nn(C)c2nnc(-c3c[nH]c(=O)[nH]c3=O)cc12)c1cccc(C(F)(F)F)c1 (centres unmarked) [Example 20, 5-[1-methyl-3-[1-[3-(trifluoromethyl)phenyl]ethoxy]pyrazolo[3,4-c]pyridazin-5-yl]-1H-pyrimidine-2,4-dione]
6.15 |  | Cn1nc(O[C@@H](c2ccccn2)C(F)(F)F)c2cc(-c3c[nH]c(=O)[nH]c3=O)nnc21 [Example 29B, 5-[1-methyl-3-[(1S)-2,2,2-trifluoro-1-(2-pyridyl)ethoxy]pyrazolo[3,4-c]pyridazin-5-yl]-1H-pyrimidine-2,4-dione]
8.44 |  | Cn1nc(O[C@@H](c2ccccc2)C(F)(F)F)c2cc(-c3c[nH]c(=O)[nH]c3=O)nnc21 [Example 30B, 5-[1-methyl-3-[(1S)-2,2,2-trifluoro-1-phenyl-ethoxy]pyrazolo[3,4-c]pyridazin-5-yl]-1H-pyrimidine-2,4-dione]
6.15 |  | Cc1cccc([C@H](Oc2nn(C)c3nnc(-c4c[nH]c(=O)[nH]c4=O)cc23)C(F)F)n1 [Example 33B, 5-[3-[(1S)-2,2-difluoro-1-(6-methyl-2-pyridyl)ethoxy]-1-methyl-pyrazolo[3,4-c]pyridazin-5-yl]-1H-pyrimidine-2,4-dione]
6.15 |  | Cn1nc(O[C@@H](c2ccc(F)cn2)C(F)F)c2cc(-c3c[nH]c(=O)[nH]c3=O)nnc21 [Example 32B, 5-[3-[(1S)-2,2-difluoro-1-(5-fluoro-2-pyridyl)ethoxy]-1-methyl-pyrazolo[3,4-c]pyridazin-5-yl]-1H-pyrimidine-2,4-dione]
6.15 |  | Cn1nc(O[C@H](c2ccccn2)C(F)F)c2cc(-c3c[nH]c(=O)[nH]c3=O)nnc21 [Example 31A, 5-[3-[(1R)-2,2-difluoro-1-(2-pyridyl)ethoxy]-1-methyl-pyrazolo[3,4-c]pyridazin-5-yl]-1H-pyrimidine-2,4-dione]
6.15 |  | CC(Oc1nn(C)c2nnc(-c3c[nH]c(=O)[nH]c3=O)cc12)c1ccccc1 (centres unmarked) [Example 10, 5-[1-methyl-3-(1-phenylethoxy)pyrazolo[3,4-c]pyridazin-5-yl]-1H-pyrimidine-2,4-dione]
6.15 |  | Cn1nc(O[C@@H](c2ccccn2)C(F)F)c2cc(-c3c[nH]c(=O)[nH]c3=O)nnc21 [Example 31B, 5-[3-[(1S)-2,2-difluoro-1-(2-pyridyl)ethoxy]-1-methyl-pyrazolo[3,4-c]pyridazin-5-yl]-1H-pyrimidine-2,4-dione]
6.15 |  | Cn1nc(O[C@H](c2ccccc2)C(F)F)c2cc(-c3c[nH]c(=O)[nH]c3=O)nnc21 [Example 28, 5-[3-[(1R)-2,2-difluoro-1-phenyl-ethoxy]-1-methyl-pyrazolo[3,4-c]pyridazin-5-yl]-1H-pyrimidine-2,4-dione]

From US20260055113A1, “HETEROARYL COMPOUNDS FOR THE TREATMENT OF CANCER” (Hoffmann-La Roche Inc., priority 2022, published 2026)
